# From patent US9737504B2, “Dihydroorotic and acid dehydrogenase inhibitor” (NAI INC., priority 2012, dated 2017)
# What was measured:
# HBC-4 = assay: JFCR39 cancer cell growth inhibition test, HBC-4; type: cell-based; conditions: Homo sapiens, HBC4; HBC-4, Br (Breast)
# HBC-5 = assay: JFCR39 cancer cell growth inhibition test, HBC-5; type: cell-based; conditions: Homo sapiens, HBC5; HBC-5, Br (Breast)
# NCI-H226 = assay: JFCR39 cancer cell growth inhibition test, NCI-H226; type: cell-based; conditions: Homo sapiens; NCI-H226, Lu (Lung)
# DMS273 = assay: JFCR39 cancer cell growth inhibition test, DMS273; type: cell-based; conditions: Homo sapiens, DMS-273; DMS273, Lu (Lung)
# DMS114 = assay: JFCR39 cancer cell growth inhibition test, DMS114; type: cell-based; conditions: Homo sapiens, DMS-114; DMS114, Lu (Lung)
# OVCAR-8 = assay: JFCR39 cancer cell growth inhibition test, OVCAR-8; type: cell-based; conditions: Homo sapiens; OVCAR-8, Ov (Ovarian)
# MKN1 = assay: JFCR39 cancer cell growth inhibition test, MKN1; type: cell-based; conditions: Homo sapiens, MKN-1; MKN1, St (Stomac)
# MKN45 = assay: JFCR39 cancer cell growth inhibition test, MKN45; type: cell-based; conditions: Homo sapiens, MKN-45; MKN45, St (Stomac)
# human DHOD = human DHOD (Homo sapiens, UniProt Q02127); assay: Measurement of DHOD inhibitory activity (DCIP reduction, end point assay); type: biochemical; conditions: read-out: DHOD inhibition rate (%) 100 nM; 100 nM compound
# Sequence of human DHOD (Q02127 whole entry): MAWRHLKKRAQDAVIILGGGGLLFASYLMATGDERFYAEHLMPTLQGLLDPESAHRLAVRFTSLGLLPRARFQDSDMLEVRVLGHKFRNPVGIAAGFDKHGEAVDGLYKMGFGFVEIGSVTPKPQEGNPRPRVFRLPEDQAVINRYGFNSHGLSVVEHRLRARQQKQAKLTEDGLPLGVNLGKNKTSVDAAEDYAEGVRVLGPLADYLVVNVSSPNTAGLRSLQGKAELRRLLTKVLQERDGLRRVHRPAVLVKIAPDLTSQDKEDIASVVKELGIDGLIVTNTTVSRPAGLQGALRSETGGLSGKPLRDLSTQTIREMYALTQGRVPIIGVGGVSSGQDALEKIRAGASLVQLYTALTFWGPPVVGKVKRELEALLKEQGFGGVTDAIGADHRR
structure (smiles),measurement,setting,value
"C/C(=C\Cc1c(O)c(Cl)c(C)c(C=O)c1O)CC/C=C(\C)[C@@H]1CC(=O)C(C)(C)O1 (racemic) [Ascofuranone, dl-5-Chloro-2,4-dihydroxy-6-methyl-3-[(2E,6E)-3-methyl-7-(3,3-dimethyl-4-oxo-2-oxacyclopentyl)-2,6-octadienyl]benzaldehyde]",GI50,HBC-4,9.1 µM
same,GI50,HBC-5,28 µM
same,GI50,NCI-H226,15 µM
same,GI50,DMS273,5.9 µM
same,GI50,DMS114,19 µM
same,GI50,OVCAR-8,9.5 µM
same,GI50,MKN1,14 µM
same,GI50,MKN45,10 µM
same,inhibition at 0.1 µM,human DHOD,95%
